Structures can show the parent of a compound that is named as a salt.
Target: T1, BACE-2 (Homo sapiens, UniProt Q9Y5Z0)
T1 construct: Recombinant BACE-2 (extracellular domain, expressed in baculovirus and purified using standard methods); made in house
T1 sequence (Q9Y5Z0 63-473 limits assumed): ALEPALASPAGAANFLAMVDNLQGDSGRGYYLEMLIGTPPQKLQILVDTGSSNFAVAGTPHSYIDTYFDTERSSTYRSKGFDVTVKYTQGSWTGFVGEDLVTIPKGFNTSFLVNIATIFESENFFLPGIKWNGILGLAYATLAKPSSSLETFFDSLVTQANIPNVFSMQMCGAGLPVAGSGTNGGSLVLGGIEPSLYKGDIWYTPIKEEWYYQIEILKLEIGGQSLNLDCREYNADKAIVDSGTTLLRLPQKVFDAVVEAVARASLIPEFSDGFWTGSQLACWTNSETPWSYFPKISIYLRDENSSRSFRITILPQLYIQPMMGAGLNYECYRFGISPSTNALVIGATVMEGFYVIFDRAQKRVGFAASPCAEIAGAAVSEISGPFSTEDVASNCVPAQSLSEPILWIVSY
Assay: assay for inhibition of BACE-2
Assay type: biochemical

Structure (SMILES) | IC50 [nM]
CN1CC(N)=NC(C)(c2cccc(NC(=O)c3ccc(Br)cn3)c2)C1=O (stereo not drawn) [Example 188, 5-Bromo-pyridine-2-carboxylic acid [3-(6-amino-2,4-dimethyl-3-oxo-2,3,4,5-tetrahydro-pyrazin-2-yl)-phenyl]-amide] | 798
CN1CC(C)(c2cc(NC(=O)c3ccc(Br)cn3)ccc2F)N=C(N)C1=O (stereo not drawn) [Example 189, 5-Bromo-pyridine-2-carboxylic acid [3-(6-amino-2,4-dimethyl-5-oxo-2,3,4,5-tetrahydro-pyrazin-2-yl)-4-fluoro-phenyl]-amide hydrochloride] | 49
CN1CC(C)(c2cc(NC(=O)c3ccc(Cl)cn3)ccc2F)N=C(N)C1=O (stereo not drawn) [Example 190, 5-Chloro-pyridine-2-carboxylic acid [3-(6-amino-2,4-dimethyl-5-oxo-2,3,4,5-tetrahydro-pyrazin-2-yl)-4-fluoro-phenyl]-amide hydrochloride] | 35
CCN1CC(C)(c2cc(NC(=O)c3ccc(Br)cn3)ccc2F)N=C(N)C1=O (stereo not drawn) [Example 191, 5-Bromo-pyridine-2-carboxylic acid [3-(6-amino-4-ethyl-2-methyl-5-oxo-2,3,4,5-tetrahydro-pyrazin-2-yl)-4-fluoro-phenyl]-amide hydrochloride] | 30
CC(C)N1CC(C)(c2cc(NC(=O)c3ccc(Br)cn3)ccc2F)N=C(N)C1=O (stereo not drawn) [Example 194, 5-Bromo-pyridine-2-carboxylic acid [3-(6-amino-4-isopropyl-2-methyl-5-oxo-2,3,4,5-tetrahydro-pyrazin-2-yl)-4-fluoro-phenyl]-amide hydrochloride] | 47
Cn1cc(N2CC(C)(c3cc(NC(=O)c4ccc(Br)cn4)ccc3F)N=C(N)C2=O)cn1 (stereo not drawn) [Example 197, 5-Bromo-pyridine-2-carboxylic acid {3-[6-amino-2-methyl-4-(1-methyl-1H-pyrazol-4-yl)-5-oxo-2,3,4,5-tetrahydro-pyrazin-2-yl]-4-fluoro-phenyl}-amide hydrochloride] | 18
CCN1CC(C)(c2cc(NC(=O)c3ccc(C#N)cn3)ccc2F)N=C(N)C1=O (stereo not drawn) [Example 199, 5-Cyano-pyridine-2-carboxylic acid [3-(6-amino-4-ethyl-2-methyl-5-oxo-2,3,4,5-tetrahydro-pyrazin-2-yl)-4-fluoro-phenyl]-amide hydrochloride] | 132
NC1=NC(c2cc(NC(=O)c3ccc(Br)cn3)ccc2F)(C(F)F)CNC1 (stereo not drawn) [Example 201, 5-Bromo-pyridine-2-carboxylic acid [3-(6-amino-2-difluoromethyl-2,3,4,5-tetrahydro-pyrazin-2-yl)-4-fluoro-phenyl]-amide] | 24
N#Cc1ccc(C(=O)Nc2ccc(F)c(C3(C(F)F)CNCC(N)=N3)c2)nc1 (stereo not drawn) [Example 202, 5-Cyano-pyridine-2-carboxylic acid [3-(6-amino-2-difluoromethyl-2,3,4,5-tetrahydro-pyrazin-2-yl)-4-fluoro-phenyl]-amide] | 66
COC(=O)N1CC(N)=NC(c2cc(NC(=O)c3ccc(C#N)cn3)ccc2F)(C(F)F)C1 (stereo not drawn) [Example 205, 5-Amino-3-{5-[(5-cyano-pyridine-2-carbonyl)-amino]-2-fluoro-phenyl}-3-difluoromethyl-3,6-dihydro-2H-pyrazine-1-carboxylic acid methyl ester] | 104

These reach a lower IC50. Values come first.

IC50 [nM] | Structure (SMILES)
13 | CN1CC(C)(c2cc(NC(=O)c3ncc(Cl)cc3Cl)ccc2F)N=C(N)C1=O (stereo not drawn) [Example 192, 3,5-Dichloro-pyridine-2-carboxylic acid [3-(6-amino-2,4-dimethyl-5-oxo-2,3,4,5-tetrahydro-pyrazin-2-yl)-4-fluoro-phenyl]-amide hydrochloride]
8 | CCN1CC(C)(c2cc(NC(=O)c3ncc(Cl)cc3Cl)ccc2F)N=C(N)C1=O (stereo not drawn) [Example 193, 3,5-Dichloro-pyridine-2-carboxylic acid [3-(6-amino-4-ethyl-2-methyl-5-oxo-2,3,4,5-tetrahydro-pyrazin-2-yl)-4-fluoro-phenyl]-amide hydrochloride]
6 | COCCN1CC(C)(c2cc(NC(=O)c3ncc(Cl)cc3Cl)ccc2F)N=C(N)C1=O (stereo not drawn) [Example 195, 3,5-Dichloro-pyridine-2-carboxylic acid {3-[6-amino-4-(2-methoxy-ethyl)-2-methyl-5-oxo-2,3,4,5-tetrahydro-pyrazin-2-yl]-4-fluoro-phenyl}-amide hydrochloride]
17 | COCCN1CC(C)(c2cc(NC(=O)c3ccc(Br)cn3)ccc2F)N=C(N)C1=O (stereo not drawn) [Example 196, 5-Bromo-pyridine-2-carboxylic acid {3-[6-amino-4-(2-methoxy-ethyl)-2-methyl-5-oxo-2,3,4,5-tetrahydro-pyrazin-2-yl]-4-fluoro-phenyl}-amide hydrochloride]
9 | CC1(c2cc(NC(=O)c3ccc(Br)cn3)ccc2F)CN(c2cccnc2)C(=O)C(N)=N1 (stereo not drawn) [Example 198, 5-Bromo-pyridine-2-carboxylic acid [3-(6-amino-2-methyl-5-oxo-4-pyridin-3-yl-2,3,4,5-tetrahydro-pyrazin-2-yl)-4-fluoro-phenyl]-amide hydrochloride]
7 | N#Cc1ccc(C(=O)Nc2ccc(F)c(C3(C(F)F)CNC(=O)C(N)=N3)c2)nc1 (stereo not drawn) [Example 203, 5-Cyano-pyridine-2-carboxylic acid [3-(6-amino-2-difluoromethyl-5-oxo-2,3,4,5-tetrahydro-pyrazin-2-yl)-4-fluoro-phenyl]-amide]
10 | COC(=O)N1CC(N)=NC(c2cc(NC(=O)c3ccc(Br)cn3)ccc2F)(C(F)F)C1 (stereo not drawn) [Example 204, 5-Amino-3-{5-[(5-bromo-pyridine-2-carbonyl)-amino]-2-fluoro-phenyl}-3-difluoromethyl-3,6-dihydro-2H-pyrazine-1-carboxylic acid methyl ester]
4 | CC(=O)N1CC(N)=NC(c2cc(NC(=O)c3ncc(Br)cc3C)ccc2F)(C(F)F)C1 (stereo not drawn) [Example 206, 5-Bromo-3-methyl-pyridine-2-carboxylic acid [3-(4-acetyl-6-amino-2-difluoromethyl-2,3,4,5-tetrahydro-pyrazin-2-yl)-4-fluoro-phenyl]-amide]
3 | Cc1cc(Br)cnc1C(=O)Nc1ccc(F)c(C2(C(F)F)CN(C(=O)OCC(Cl)Cl)CC(N)=N2)c1 (stereo not drawn) [Example 207, 5-Amino-3-{5-[(5-bromo-3-methyl-pyridine-2-carbonyl)-amino]-2-fluoro-phenyl}-3-difluoromethyl-3,6-dihydro-2H-pyrazine-1-carboxylic acid 2,2-dichloro-ethyl ester]
4 | COCC(=O)N1CC(N)=NC(c2cc(NC(=O)c3ncc(Br)cc3C)ccc2F)(C(F)F)C1 (stereo not drawn) [Example 208, 5-Bromo-3-methyl-pyridine-2-carboxylic acid {3-[6-amino-2-difluoromethyl-4-(2-methoxy-acetyl)-2,3,4,5-tetrahydro-pyrazin-2-yl]-4-fluoro-phenyl}-amide]
6 | Cc1cc(Br)cnc1C(=O)Nc1ccc(F)c(C2(C(F)F)CN(C(=O)C3CC3)CC(N)=N2)c1 (stereo not drawn) [Example 209, 5-Bromo-3-methyl-pyridine-2-carboxylic acid [3-(6-amino-4-cyclopropanecarbonyl-2-difluoromethyl-2,3,4,5-tetrahydro-pyrazin-2-yl)-4-fluoro-phenyl]-amide]

Reference: patent US20140128385A1 (NOVARTIS AG, priority 2011, published 2014)
